Literature values, collected in patent US6476071B1, “Correcting polymorphic metabolic dysfunction with (−)-hydroxycitric acid” (priority 2001, dated 2002).

Tests used:
rats = details: after a three hour meal
animals = details: 70% glucose diet, as long as 80 days

Q: Which results are given for `O=C([O-])CC(O)(C(=O)[O-])C(O)C(=O)[O-].[Na+].[Na+].[Na+]` (stereo not drawn) [trisodium salt of (−)-hydroxycitric acid]?
A: contents of the stomach, % of control (rats): 223 % of control; contents of the stomach (rats; controls 884±145): 1973±154 dpm×10^3; body weight after disappearance of appetite control (animals): maintained a reduced weight
